Assay in all cases: AlphaScreen competition
Holding throughout (assay type): binding
For orientation: Bead proximity is the source of the signal in Alpha formats.

Experiment [1] concerns the target BPTF bromodomain (BPTF BD) (Homo sapiens, UniProt Q12830).
Experiment [2] addresses CECR2 bromodomain (CECR2 BD) (Homo sapiens, UniProt Q9BXF3).
In experiment [3] the target is T1, BRD9 bromodomain (BRD9 BD) (Homo sapiens, UniProt Q9H8M2).
T1 sequence (Q9H8M2 134-239 limits assumed): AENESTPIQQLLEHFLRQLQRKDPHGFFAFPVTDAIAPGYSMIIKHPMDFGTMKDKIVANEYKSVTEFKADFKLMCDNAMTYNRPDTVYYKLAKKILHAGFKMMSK

Broadly, the IC50 is the concentration at which inhibition is half-maximal. A low value points to greater potency in that assay. The molecule `CN(CCCOc1ccc(-c2cc(NCCCn3cccn3)nc(S(C)(=O)=O)n2)cc1)CCOCCOCCOc1cccc2c1C(=O)N(C1CCC(=O)NC1=O)C2=O` (stereo not shown) [compound 10, 4-(2-(2-(2-((3-(4-(6-((3-(1H-Pyrazol-1-yl)propyl)amino)-2-(methylsulfonyl)pyrimidin-4-yl)phenoxy)propyl)(methyl)-amino)ethoxy)ethoxy)ethoxy)-2-(2,6-dioxopiperidin-3-yl)-isoindoline-1,3-dione] registered a 50% inhibitory concentration (IC50) in experiment [1] of 0.36 µM.

Take `CS(=O)(=O)c1nc(NCCCn2cccn2)cc(-c2ccc(OCCCN3CCN(CCOCCOCCOc4cccc5c4C(=O)N(C4CCC(=O)NC4=O)C5=O)CC3)cc2)n1` (stereo not shown) [compound 9, 4-(2-(2-(2-(4-(3-(4-(6-((3-(1H-Pyrazol-1-yl)propyl)amino)-2-(methylsulfonyl)pyrimidin-4-yl)phenoxy)propyl)piperazin-1-yl)ethoxy)ethoxy)ethoxy)-2-(2,6-dioxopiperidin-3-yl)-isoindoline-1,3-dione]: the figures for the concentration for half-maximal inhibition (IC50) in experiment [1], in experiment [2] and in experiment [3] were 0.267 ± 0.008 µM, 0.033 µM and 0.996 µM, respectively.

Turning to `CS(=O)(=O)c1nc(NCCCn2cccn2)cc(-c2ccc(OCCCN3CCN(CCCCCCOc4cccc5c4C(=O)N(C4CCC(=O)NC4=O)C5=O)CC3)cc2)n1` (stereo not shown) [compound 8, 4-((6-(4-(3-(4-(6-((3-(1H-Pyrazol-1-yl)propyl)amino)-2-(methylsulfonyl)pyrimidin-4-yl)phenoxy)propyl)piperazin-1-yl)hexyl)oxy)-2-(2,6-dioxopiperidin-3-yl)isoindoline-1,3-dione], the concentration for half-maximal inhibition (IC50) in experiment [1] was 0.146 ± 0.012 µM; in experiment [2], 0.024 µM; in experiment [3], 0.844 µM.

For the origin of these results see publication PMC10698694 (ACS chemical biology, 2023).
